Data published in ChEMBL document CHEMBL5608186, “Design, synthesis and structure-activity relationships of novel non-ketolides: 9-Oxime clarithromycin featured with seven-to thirteen-atom-length diamine linkers at 3-OH” (Eur J Med Chem, 2024).
Converted amounts (≈) assume the structure as drawn.

How the values were obtained:
Format in all cases: functional
Staphylococcus aureus [1] = experiment: Selectivity ratio of MBC for methicillin-resistant Staphylococcus aureus PU 32 harboring i-ermA gene to MIC for methicillin-resistant Staphylococcus aureus PU 32 harboring i-ermA gene
Streptococcus pyogenes [2] = experiment: Selectivity ratio of MBC for Streptococcus pyogenes 01-968 harboring i-ermB gene to MIC for Streptococcus pyogenes 01-968 harboring i-ermB gene
Haemophilus influenzae [3] = experiment: Selectivity ratio of MBC for Haemophilus influenzae ATCC 49247 to MIC for Haemophilus influenzae ATCC 49247
Streptococcus pneumoniae [4] = experiment: Antibacterial activity against Streptococcus pneumoniae 07P390 harboring c-erm gene incubated for 16 to 20 hrs by CLSI based broth microdilution method; settings: time 16-20 hrs
Streptococcus pneumoniae [5] = experiment: Selectivity ratio of MBC for Streptococcus pneumoniae PU 09 harboring mef gene to MIC for Streptococcus pneumoniae PU 09 harboring mef gene
Streptococcus pneumoniae [6] = experiment: Selectivity ratio of MBC for Streptococcus pneumoniae ATCC 49619 to MIC for Streptococcus pneumoniae ATCC 49619
Staphylococcus aureus [7] = experiment: Bactericidal activity against methicillin-resistant Staphylococcus aureus PU 20 harboring c-ermA gene incubated for 16 to 20 hrs by CLSI based broth microdilution method; settings: time 16-20 hrs
Staphylococcus aureus [8] = experiment: Antibacterial activity against methicillin-resistant Staphylococcus aureus PU 20 harboring c-ermA gene incubated for 16 to 20 hrs by CLSI based broth microdilution method; settings: time 16-20 hrs
Staphylococcus aureus [9] = experiment: Bactericidal activity against methicillin-resistant Staphylococcus aureus PU 32 harboring i-ermA gene incubated for 16 to 20 hrs by CLSI based broth microdilution method; settings: time 16-20 hrs
Staphylococcus aureus [10] = experiment: Antibacterial activity against methicillin-resistant Staphylococcus aureus PU 32 harboring i-ermA gene incubated for 16 to 20 hrs by CLSI based broth microdilution method; settings: time 16-20 hrs
Streptococcus pyogenes [11] = experiment: Bactericidal activity against Streptococcus pyogenes 01-968 harboring i-ermB gene incubated for 16 to 20 hrs by CLSI based broth microdilution method; settings: time 16-20 hrs
Streptococcus pyogenes [12] = experiment: Antibacterial activity against Streptococcus pyogenes 01-968 harboring i-ermB gene incubated for 16 to 20 hrs by CLSI based broth microdilution method; settings: time 16-20 hrs
Haemophilus influenzae [13] = experiment: Antibacterial activity against Haemophilus influenzae ATCC 49247 incubated for 16 to 20 hrs by CLSI based broth microdilution method; settings: time 16-20 hrs
Streptococcus pneumoniae [14] = experiment: Bactericidal activity against Streptococcus pneumoniae PU 09 harboring mef gene incubated for 16 to 20 hrs by CLSI based broth microdilution method; settings: time 16-20 hrs
Streptococcus pneumoniae [15] = experiment: Antibacterial activity against Streptococcus pneumoniae PU 09 harboring mef gene incubated for 16 to 20 hrs by CLSI based broth microdilution method; settings: time 16-20 hrs
Streptococcus pneumoniae [16] = experiment: Bactericidal activity against Streptococcus pneumoniae ATCC 49619 incubated for 16 to 20 hrs by CLSI based broth microdilution method; settings: time 16-20 hrs
Streptococcus pneumoniae [17] = experiment: Antibacterial activity against Streptococcus pneumoniae ATCC 49619 incubated for 16 to 20 hrs by CLSI based broth microdilution method; settings: time 16-20 hrs
Haemophilus influenzae [18] = experiment: Bactericidal activity against Haemophilus influenzae ATCC 49247 incubated for 16 to 20 hrs by CLSI based broth microdilution method; settings: time 16-20 hrs
Streptococcus pneumoniae [19] = experiment: Bactericidal activity against Streptococcus pneumoniae 07P390 harboring c-erm gene incubated for 16 to 20 hrs by CLSI based broth microdilution method; settings: time 16-20 hrs

Q: How did the Selectivity ratio (Staphylococcus aureus [1]) turn out when `CC[C@H]1OC(=O)[C@H](C)[C@@H](OC(=O)NCCCc2ccc3c(c2)c(=O)c(C(=O)O)cn3C2CC2)[C@H](C)[C@@H](O[C@@H]2O[C@H](C)C[C@H](N(C)C)[C@H]2O)[C@](C)(OC)C[C@@H](C)/C(=N\OC)[C@H](C)[C@H]2OC(=O)O[C@@]21C` was run?
A: >8

Q: What about the Selectivity ratio (Streptococcus pyogenes [2]) of the same compound?
A: 2

Q: What about the Selectivity ratio (Haemophilus influenzae [3]) of the same compound?
A: 1

Q: And the MIC (Streptococcus pneumoniae [4])?
A: > 32 µg/mL

Q: And the Selectivity ratio (Streptococcus pneumoniae [5])?
A: 4

Q: And the Selectivity ratio (Streptococcus pneumoniae [6])?
A: 2

Q: `CC[C@H]1OC(=O)[C@H](C)[C@@H](OC(=O)CCNCCCCCCCCNc2cc3c(=O)c(C(=O)O)cn(C4CC4)c3cc2Cl)[C@H](C)[C@@H](O[C@@H]2O[C@H](C)C[C@H](N(C)C)[C@H]2O)[C@](C)(OC)C[C@@H](C)/C(=N\OC)[C@H](C)[C@H]2OC(=O)O[C@@]21C` was tested. Which MBC (Staphylococcus aureus [7]) did it give?
A: > 256 µg/mL

Q: What about the MIC (Staphylococcus aureus [8]) of the same compound?
A: 128 µg/mL (≈ 116 µM)

Q: And the MBC (Staphylococcus aureus [9])?
A: > 256 µg/mL

Q: What about the MIC (Staphylococcus aureus [10]) of the same compound?
A: 128 µg/mL (≈ 116 µM)

Q: And the Selectivity ratio (Streptococcus pyogenes [2])?
A: >8

Q: What about the MBC (Streptococcus pyogenes [11]) of the same compound?
A: > 32 µg/mL

Q: And the MIC (Streptococcus pyogenes [12])?
A: 4 µg/mL (≈ 3.62 µM)

Q: And the MIC (Haemophilus influenzae [13])?
A: > 256 µg/mL

Q: What about the MIC (Streptococcus pneumoniae [4]) of the same compound?
A: > 32 µg/mL

Q: And the Selectivity ratio (Streptococcus pneumoniae [5])?
A: 1

Q: And the MBC (Streptococcus pneumoniae [14])?
A: 16 µg/mL (≈ 14.5 µM)

Q: And the Selectivity ratio (Streptococcus pneumoniae [6])?
A: 1

Q: And the MIC (Streptococcus pneumoniae [15])?
A: 16 µg/mL (≈ 14.5 µM)

Q: What about the MBC (Streptococcus pneumoniae [16]) of the same compound?
A: 2 µg/mL (≈ 1.81 µM)

Q: And the MIC (Streptococcus pneumoniae [17])?
A: 2 µg/mL (≈ 1.81 µM)

Q: For `CC[C@H]1OC(=O)[C@H](C)[C@@H](OC(=O)CCN2CCN(c3cc4c(cc3F)c(=O)c(C(N)=O)cn4C3CC3)CC2)[C@H](C)[C@@H](O[C@@H]2O[C@H](C)C[C@H](N(C)C)[C@H]2O)[C@](C)(OC)C[C@@H](C)/C(=N\OCC#Cc2cncc(C(=O)NC)c2)[C@H](C)[C@H]2OC(=O)O[C@@]21C`, which MBC (Staphylococcus aureus [7]) is on record?
A: > 256 µg/mL

Q: What about the MIC (Staphylococcus aureus [8]) of the same compound?
A: > 256 µg/mL

Q: What about the MBC (Staphylococcus aureus [9]) of the same compound?
A: > 256 µg/mL

Q: And the MIC (Staphylococcus aureus [10])?
A: 256 µg/mL (≈ 216 µM)

Q: What about the Selectivity ratio (Streptococcus pyogenes [2]) of the same compound?
A: >8

Q: And the MBC (Streptococcus pyogenes [11])?
A: > 256 µg/mL

Q: And the MIC (Streptococcus pyogenes [12])?
A: 32 µg/mL (≈ 27 µM)

Q: What about the MBC (Haemophilus influenzae [18]) of the same compound?
A: > 256 µg/mL

Q: And the MIC (Haemophilus influenzae [13])?
A: > 256 µg/mL

Q: And the MBC (Streptococcus pneumoniae [19])?
A: > 256 µg/mL

Q: What about the MIC (Streptococcus pneumoniae [4]) of the same compound?
A: 256 µg/mL (≈ 216 µM)

Q: And the Selectivity ratio (Streptococcus pneumoniae [5])?
A: 4

Q: What about the MBC (Streptococcus pneumoniae [14]) of the same compound?
A: 4 µg/mL (≈ 3.37 µM)

Q: And the Selectivity ratio (Streptococcus pneumoniae [6])?
A: 4

Q: And the MIC (Streptococcus pneumoniae [15])?
A: 1 µg/mL (≈ 0.842 µM)

Q: What about the MBC (Streptococcus pneumoniae [16]) of the same compound?
A: 1 µg/mL (≈ 0.842 µM)

Q: And the MIC (Streptococcus pneumoniae [17])?
A: 0.25 µg/mL (≈ 0.211 µM)

Q: Which results are given for `CC[C@H]1OC(=O)[C@H](C)[C@@H](OC(=O)CCNCCCc2ccc3c(c2)c(=O)c(C(=O)O)cn3C2CC2)[C@H](C)[C@@H](O[C@@H]2O[C@H](C)C[C@H](N(C)C)[C@H]2O)[C@](C)(OC)C[C@@H](C)/C(=N\OC)[C@H](C)[C@H]2OC(=O)O[C@@]21C`?
A: Selectivity ratio (Streptococcus pyogenes [2]): 1; Selectivity ratio (Haemophilus influenzae [3]): 2; MBC (Streptococcus pneumoniae [19]): > 32 µg/mL; MIC (Streptococcus pneumoniae [4]): 16 µg/mL (≈ 16.2 µM); Selectivity ratio (Streptococcus pneumoniae [5]): 1; Selectivity ratio (Streptococcus pneumoniae [6]): 2

Q: Which MIC (Staphylococcus aureus [8]) does the source give for `CC[C@H]1OC(=O)[C@H](C)[C@@H](OC(=O)CCNCCNc2cc3c(=O)c(C(=O)O)cn(C4CC4)c3cc2Cl)[C@H](C)[C@@H](O[C@@H]2O[C@H](C)C[C@H](N(C)C)[C@H]2O)[C@](C)(OC)C[C@@H](C)/C(=N\OC)[C@H](C)[C@H]2OC(=O)O[C@@]21C` here?
A: > 256 µg/mL

Q: And the Selectivity ratio (Streptococcus pyogenes [2])?
A: 2

Q: What about the Selectivity ratio (Haemophilus influenzae [3]) of the same compound?
A: 1

Q: What about the MIC (Streptococcus pneumoniae [4]) of the same compound?
A: > 32 µg/mL

Q: And the Selectivity ratio (Streptococcus pneumoniae [5])?
A: 1

Q: And the Selectivity ratio (Streptococcus pneumoniae [6])?
A: 2

Q: With `CC[C@H]1OC(=O)[C@H](C)[C@@H](OC(=O)CCN2CCN(c3cc4c(cc3F)c(=O)c(C(=O)O)cn4C3CC3)CC2)[C@H](C)[C@@H](O[C@@H]2O[C@H](C)C[C@H](N(C)C)[C@H]2O)[C@](C)(OC)C[C@@H](C)/C(=N\OCC#Cc2cncc3ccccc23)[C@H](C)[C@H]2OC(=O)O[C@@]21C` as the compound, how does the MIC (Staphylococcus aureus [8]) read?
A: > 256 µg/mL

Q: What about the MIC (Staphylococcus aureus [10]) of the same compound?
A: > 256 µg/mL

Q: And the Selectivity ratio (Streptococcus pyogenes [2])?
A: 2

Q: And the MBC (Streptococcus pyogenes [11])?
A: 64 µg/mL (≈ 54.2 µM)

Q: What about the MIC (Streptococcus pyogenes [12]) of the same compound?
A: 32 µg/mL (≈ 27.1 µM)

Q: What about the Selectivity ratio (Haemophilus influenzae [3]) of the same compound?
A: 1

Q: And the MBC (Haemophilus influenzae [18])?
A: 1 µg/mL (≈ 0.846 µM)

Q: What about the MIC (Haemophilus influenzae [13]) of the same compound?
A: 1 µg/mL (≈ 0.846 µM)

Q: What about the MIC (Streptococcus pneumoniae [4]) of the same compound?
A: > 32 µg/mL

Q: And the Selectivity ratio (Streptococcus pneumoniae [5])?
A: 2

Q: What about the MBC (Streptococcus pneumoniae [14]) of the same compound?
A: 32 µg/mL (≈ 27.1 µM)

Q: What about the Selectivity ratio (Streptococcus pneumoniae [6]) of the same compound?
A: 1

Q: And the MIC (Streptococcus pneumoniae [15])?
A: 16 µg/mL (≈ 13.5 µM)

Q: What about the MBC (Streptococcus pneumoniae [16]) of the same compound?
A: 4 µg/mL (≈ 3.39 µM)

Q: What about the MIC (Streptococcus pneumoniae [17]) of the same compound?
A: 4 µg/mL (≈ 3.39 µM)
